Source: patent US12520839B2, “Methods and compositions for cryopreservation of cell therapies” (The George Washington University, priority 2020, dated 2026)

Key:
Assay type in all cases: cell-based
[1] = system: NK cells; assay: CD16 expression on NK cells after cryopreservation and thawing
Protocol: (§1) A freezing medium (FM) was prepared having 50% RPMI, 40% FBS, 10% DMSO. FM was supplemented with the ADAM17 inhibitor TAPI-2 at amounts indicated in this example. Additionally, a wash medium (WM) was prepared having 50% RPMI, 40% FBS, 10% DMSO and supplemented with TAPI-2 at amounts indicated in this example.
(§2) Experiments were generally performed using in-vitro NK cells and T cells that were isolated and expanded for 14 days in culture. On day 14 of the culture, the NK cells and T cells were cryopreserved the using FM with or without TAPI-2. Then, cells were thawed using WM with or without TAPI-2.
CD16 expression is maintained in NK cells in presence of TAPI-2.

[2] = system: T cells; assay: CD62L expression on T cells after cryopreservation and thawing
Protocol: as §1, §2
CD62L expression is maintained in T cells in presence of TAPI-2.
Next, T cells were cryopreserved in freezing media without TAPI-2.

[3] = system: NK cells and T cells; assay: Cell viability after thawing, trypan blue exclusion; details: TAPI-2 added to freezing medium; immediately and 120 minutes after thawing; FIGS. 6A-6B
Protocol: (§3) Polyclonally activated T cells and expanded NK cells were expanded for 14 and 12 days respectively and cryopreserved using freezing media (FM) with or without TAPI-2 prepared as described in Example 1. Cryovials were then stored in liquid nitrogen tank.
Cryovials were thawed in water bath with cell wash performed, cell recovery (FIGS. 5A-5B) and viability (FIGS. 6A-6B) was assessed immediately after thawing. Cell viability was also assessed 120 minutes after thawing (FIGS. 6A-6B). Trypan blue exclusion method was use to evaluate cell viability.

[4] = system: NK cells; assay: NK-cell phenotype by flow cytometry after thawing
Protocol: as §3
Flow analysis was performed 120 minutes after thawing (except for NKG2D which expression was analyzed immediately after thawing).

Structure (SMILES): CC(C)C[C@H](CC(=O)NO)C(=O)N[C@H](C(=O)N[C@@H](C)C(=O)NCCN)C(C)(C)C [TAPI-2]
- CD16 expression after thawing ([1]; FM containing 50 μM TAPI-2, thawed and not washed, immediately after thawing and 2 hours thereafter, FIG. 1): able to maintain CD16 expression
- CD16 expression versus level prior to cryopreservation ([1]; NK cells cryopreserved in FM containing TAPI-2, FIG. 1): retained expression of CD16 to the same level as prior cryopreservation
- CD16 expression after washing with wash medium containing TAPI-2 ([1]; frozen in freezing media without TAPI-2, wash media with 10 μM TAPI-2 (Thaw+), FIG. 2): showed CD16 expression
- CD62L expression after thawing ([2]; FM containing 50 μM TAPI-2, thawed and not washed, immediately after thawing and 2 hours thereafter, FIG. 3): able to maintain CD62L expression
- CD62L expression versus level before cryopreservation ([2]; T cells cryopreserved in FM containing TAPI-2, FIG. 3): retained expression of CD62L to a level that was equal to that before cells were subjected to cryopreservation
- CD62L expression after washing with wash medium containing TAPI-2 ([2]; frozen in freezing media without TAPI-2, wash media with 10 μM TAPI-2 (Thaw+), FIG. 4): showed CD62L expression
- cell viability [3]: did not negatively affect
- phenotype ([4]; TAPI-2 added to freezing medium, summary statement): did not negatively affect
- NK-cell phenotype ([4]; TAPI-2 in the freezing media, flow analysis 120 minutes after thawing (NKG2D immediately after thawing), FIG. 7): not affected
